Data taken from patent US20250066356A1, “LRRK2 INHIBITORS” (INTERLINE THERAPEUTICS, INC., priority 2022, published 2025).

Assays:
[1] = target: T1, phosphorylation at Ser935 on wild type LRRK2 overexpressed in recombinant HEK-293T cells (Homo sapiens, UniProt Q5S007); experiment: pS935 LRRK2 Cell Assay (HTRF); assay type: cell-based; conditions: LRRK2 inhibition; pS935 LRRK2 in transfected HEK293T cells, 2 hours compound incubation
T1 construct: host or cells: HEK293T, transient transfection
Text: The following protocol describes an in-vitro method for measuring phosphorylation at Ser935 on wild type LRRK2 overexpressed in recombinant HEK-293T cells. The method is based on HTRF technology, which combines Fluorescence Resonance Energy Transfer (FRET) with Time-Resolved measurement (TR). Phospho-LRRK2 (Ser935) is detected in a sandwich assay format using two different specific antibodies, one labelled with Eu^3+-Cryptate (donor) and the second with d2 (acceptor). When the fluorophores are in close proximity, excitation of the donor with a light source (flash lamp) stimulates FRET to the acceptor, which in turn fluoresces at a specific wavelength (665 nm). The fluorescence emission at 615 nm from the donor is also measured to allow ratiometric reduction of data. The specific signal is proportional to phospho-LRRK2 (Ser935).
Plasmid transient transfection: DMEM medium, FBS, DPBS, Trans-IT, OPTI-MEM reagents were allowed to warm to room temperature. HEK293T cells were cultured in DMEM+10% FBS complete medium in T150 flasks till around 80% confluency before transfection. Then cells were washed with 10 mL PBS and detached with 3 mL 0.25% typinsin. 30×10E6 HEK293T cells were seeded in DMEM+10% FBS complete medium to a 15 cm dish.
DNA, TransIT-LT1, OPTI-MEM complex were prepared: […] OPTI-MEM was added to a 15 mL cone tube, then […] plasmid was added to OPTI-MEM and mixed, followed by addition of 60 L TransIT-LT1 to the plasmid OPTI-MEM mixture and mixing. The resulting mixture was incubated for 15 minutes.
The above plasmid, DNA and OPTI-MEM mixture was added dropwise to the 15 cm dish, ensuring the drops were evenly distributed. The culture dish was gently rocked back and forth and from left to right to evenly distribute the complex. The transfected dish was incubated for 24 hours at 37° C., and 5% CO2.
Transfected HEK293T was collected in the 15 cm dish. Media was aspirated from tissue culture dish, and washed by dispensing 10 mL 1×DPBS into 15 cm dish. 1×DPBS was aspirated and 3 mL trypsin was dispensed to 15 cm dish. The dish was incubated with trypsin at room temperature for 3 min until the cells were detached. 10 mL of DMEM+10% FBS medium were added to 15 cm dish and triturated to ensure homogenous cell suspensions.
Homogenous cell suspensions were transferred to a 50 mL tube, and centrifuged for 5 minutes at 1,000 rmp/min. The supernatant was aspirated and resuspended with 20 mL complete medium. 1 mL of cell suspension was transferred for cell counting. The cell suspension was diluted to 2×10E5 cells/ml. 50 L cell suspensions were added to a 384-well plate. The plate was quick spun at 800 rpm for 1 minute, then incubate overnight at 37° C., 5% CO2.
Compound dispensing: compound was diluted (10 mM DMSO stock solution) and added to assay plate (top concentration: 10 μM, 3 fold serial dilution, 9 doses) with duplicates by Tecan liquid handler. The DMSO concentration of each well was normalized to 0.2%. Plates were quick spun at 1,000 rpm for 1 minute. Plates were incubated at 37° C., 5% CO2 for 2 hours.
1× lysis buffer solution supplemented with blocking reagent was prepared (e.g. 1 mL lysis buffer 4×+3 mL water+40 L stock blocking reagent 100×). Antibodies working solution was prepared by diluting 40-fold d2 and Cryptate antibodies with detection buffer (e.g. 1520 L detection buffer+40 L d2-antibody stock solution+[…] Cryptate-antibody stock solution).
After 2 hours incubation, cell plates were taken out from the incubator. Medium was removed by plate washer, then 16 µL of supplemented lysis buffer was added 1× to each well and incubated for 30 minutes at room temperature under shaking (800 rpm/min). 4 µL of antibodies working solution was added to each well, covered with a top seal and incubated overnight in 23° C. incubator.
HTRF signal was read (665 nm and 615 nm) on Wallac 2104 EnVision® multilabel reader. Data were analyzed by XL fit software.

LRRK2 wild type enzyme = LRRK2 wild type enzyme (Homo sapiens, UniProt Q5S007); experiment: LRRK2 biochemical assay (LanthaScreen TR-FRET, LRRKtide substrate); conditions: LRRK2 inhibition; 3 nM LRRK2, 400 nM LRRKtide, 25 μM ATP, 120 min, 23° C.
Chain of LRRK2 wild type enzyme (Q5S007 whole entry): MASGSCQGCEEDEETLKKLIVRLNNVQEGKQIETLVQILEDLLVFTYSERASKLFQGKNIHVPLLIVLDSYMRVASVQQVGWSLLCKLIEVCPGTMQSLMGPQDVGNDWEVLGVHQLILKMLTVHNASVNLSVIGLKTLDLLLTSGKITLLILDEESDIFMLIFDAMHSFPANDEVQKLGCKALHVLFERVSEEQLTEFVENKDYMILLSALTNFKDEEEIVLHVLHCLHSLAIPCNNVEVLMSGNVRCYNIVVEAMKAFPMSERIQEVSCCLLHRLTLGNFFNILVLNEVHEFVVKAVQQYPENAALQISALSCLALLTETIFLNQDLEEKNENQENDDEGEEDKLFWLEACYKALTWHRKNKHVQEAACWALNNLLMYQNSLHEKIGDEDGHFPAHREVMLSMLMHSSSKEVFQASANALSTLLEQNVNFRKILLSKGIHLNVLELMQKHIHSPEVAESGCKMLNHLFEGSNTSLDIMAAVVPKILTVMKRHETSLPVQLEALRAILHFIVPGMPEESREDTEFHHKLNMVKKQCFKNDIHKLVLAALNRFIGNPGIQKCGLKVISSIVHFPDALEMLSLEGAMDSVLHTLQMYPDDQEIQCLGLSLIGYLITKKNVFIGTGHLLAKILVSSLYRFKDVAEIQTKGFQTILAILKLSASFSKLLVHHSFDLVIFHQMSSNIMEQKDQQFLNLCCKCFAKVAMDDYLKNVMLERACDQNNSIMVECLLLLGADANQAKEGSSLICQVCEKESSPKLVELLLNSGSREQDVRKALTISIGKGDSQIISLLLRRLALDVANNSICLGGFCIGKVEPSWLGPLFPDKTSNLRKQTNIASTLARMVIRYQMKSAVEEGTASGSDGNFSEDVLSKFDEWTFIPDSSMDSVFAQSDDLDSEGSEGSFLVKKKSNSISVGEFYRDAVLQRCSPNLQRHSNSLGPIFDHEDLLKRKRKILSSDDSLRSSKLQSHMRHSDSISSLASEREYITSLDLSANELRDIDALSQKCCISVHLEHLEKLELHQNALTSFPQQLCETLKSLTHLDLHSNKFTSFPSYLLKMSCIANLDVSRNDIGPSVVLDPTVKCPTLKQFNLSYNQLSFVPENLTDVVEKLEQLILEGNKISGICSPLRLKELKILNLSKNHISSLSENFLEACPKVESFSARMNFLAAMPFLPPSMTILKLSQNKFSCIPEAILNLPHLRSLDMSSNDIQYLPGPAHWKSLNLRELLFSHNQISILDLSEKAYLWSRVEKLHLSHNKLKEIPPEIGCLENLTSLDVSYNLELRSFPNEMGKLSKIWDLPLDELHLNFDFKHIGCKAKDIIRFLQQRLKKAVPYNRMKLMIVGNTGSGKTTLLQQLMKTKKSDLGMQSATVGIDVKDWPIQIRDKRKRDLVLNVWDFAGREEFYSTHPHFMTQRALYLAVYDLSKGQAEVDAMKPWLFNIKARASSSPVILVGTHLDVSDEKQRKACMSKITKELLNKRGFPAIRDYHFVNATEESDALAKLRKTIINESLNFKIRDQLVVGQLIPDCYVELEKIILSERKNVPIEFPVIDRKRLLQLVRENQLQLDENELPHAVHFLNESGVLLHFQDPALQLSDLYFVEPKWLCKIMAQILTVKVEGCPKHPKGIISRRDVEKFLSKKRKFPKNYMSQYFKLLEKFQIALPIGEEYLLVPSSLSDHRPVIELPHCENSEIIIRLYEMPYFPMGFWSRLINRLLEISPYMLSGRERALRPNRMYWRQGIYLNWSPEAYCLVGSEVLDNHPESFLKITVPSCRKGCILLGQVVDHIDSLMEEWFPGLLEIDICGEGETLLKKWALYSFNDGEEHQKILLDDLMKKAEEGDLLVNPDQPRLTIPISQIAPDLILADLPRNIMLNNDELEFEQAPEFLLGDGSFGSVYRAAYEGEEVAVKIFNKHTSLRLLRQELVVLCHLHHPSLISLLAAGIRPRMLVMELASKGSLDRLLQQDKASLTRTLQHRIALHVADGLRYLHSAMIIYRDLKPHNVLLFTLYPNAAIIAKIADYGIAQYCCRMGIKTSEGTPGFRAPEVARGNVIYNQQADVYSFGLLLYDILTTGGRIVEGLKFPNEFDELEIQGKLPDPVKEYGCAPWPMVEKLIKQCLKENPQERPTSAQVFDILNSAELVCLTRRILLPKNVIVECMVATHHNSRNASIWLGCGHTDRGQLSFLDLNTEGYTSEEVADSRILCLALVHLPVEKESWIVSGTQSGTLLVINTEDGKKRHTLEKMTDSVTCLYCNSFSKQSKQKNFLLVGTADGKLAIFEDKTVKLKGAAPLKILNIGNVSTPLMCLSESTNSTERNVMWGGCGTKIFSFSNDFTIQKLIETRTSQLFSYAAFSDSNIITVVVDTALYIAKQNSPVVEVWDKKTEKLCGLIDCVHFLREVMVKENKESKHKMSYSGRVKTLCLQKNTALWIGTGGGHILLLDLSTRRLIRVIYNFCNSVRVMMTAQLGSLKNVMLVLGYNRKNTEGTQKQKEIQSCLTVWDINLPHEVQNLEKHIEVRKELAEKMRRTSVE
Procedure: 10 mM compound solution was prepared in DMSO. An 11-point, 3-fold dilution was performed, with highest concentration at 10 μM. A 10 mM compound DMSO solution was added to Labcyte LDV plate and the compound concentration of source plate was 10 mM. The 1 st compound concentration of Inter plate (Labcyte 384 well PP plate) was 4.938×10^−1 mM which was prepared by transferring 1.5 μL of 10 mM compound from source plate to 28.9 μL DMSO. The 2nd compound concentration of Inter plate was 1.829×10^−2 mM which was prepared by transferring 60 nL of 10 mM compound from source plate to 32.7 μL DMSO. The 3rd compound concentration of Inter plate was 6.774×10^−4 mM which was prepared by transferring 2.5 nL of 10 mM compound from source plate to 36.9 μL DMSO. 100 nL of reference compound was dispensed in column 1 for low control wells and 100 nL of DMSO in column 24 for high control wells. Compounds were dispensed to column 2 to 23 of assay plate and backfilled with DMSO to a total volume of 100 nL.
A 2×LRRK2 enzyme solution (final concentration 3 nM) was prepared in assay buffer (Tris-HCl pH8.0: 50 mM, MgCl2: 5 mM, EDTA: 1 mM, Brij-35: 0.01%, 2 mM DTT). A 2× substrate solution was prepared: LRRK2 tide substrate (final concentration 400 nM) and ATP (final concentration 25 μM) in assay buffer. 5 μL 2×LRRK2 enzyme solution was dispensed to each well in assay plate by Multidrop. Assay plate was spun at 1,000 rpm for 1 min and incubated for 15 min at 23° C. 5 μL 2×ATP/LRRKtide solution was dispensed to each well in assay plate by Multidrop. Assay plate was spun at 1,000 rpm for 1 min and incubated for 120 min at 23° C.
A 2× detection solution was prepared: Tb-pERM (pLRRKtide) antibody (final concentration 0.25 nM) and EDTA (final concentration 10 mM) in TR-FRET dilution buffer. 10 μL 2× detection solution was dispensed to each well in assay plate to stop kinase reaction by Multidrop. Assay plate was spun at 1,000 rpm for 1 min and incubate for 30 min at 23° C. Assay plate was then read on Envision configured for LanthaScreen® TR-FRET.

T1 sequence (Q5S007 whole entry): as above

Row | SMILES | IC50 [1] [nM] | IC50 (LRRK2 wild type enzyme) [nM]
1 | COC(=O)c1cn(Cc2nc3cnc4ccc(C#N)cc4c3n2[C@@H]2CCO[C@H](C)C2)ccc1=O [Compound 18, methyl 1-({8-cyano-1-[(2R,4R)-2-methyloxan-4-yl]-1H-imidazo[4,5-c]quinolin-2-yl}methyl)-4-oxo-1,4-dihydropyridine-3-carboxylate] | 7020 | 2.64
2 | C[C@@H]1C[C@H](n2c(Cc3noc(C4(S(C)(=O)=O)CC4)n3)nc3cnc4ccc(C#N)cc4c32)CCO1 [Compound 13, 2-{[5-(1-methanesulfonylcyclopropyl)-1,2,4-oxadiazol-3-yl]methyl}-1-[(2R,4R)-2-methyloxan-4-yl]-1H-imidazo[4,5-c]quioline-8-carbonitrile] | 23.7 | 0.449
3 | C[C@@H]1C[C@H](n2c(Cc3noc(=O)[nH]3)nc3cnc4ccc(C#N)cc4c32)CCO1 [Compound 14, 1-[(2R,4R)-2-methyloxan-4-yl]-2-[(5-oxo-4,5-dihydro-1,2,4-oxadiazol-3-yl)methyl]-1H-imidazo[4,5-c]quinoline-8-carbonitrile] | > 10000 | 7.84
4 | COC(=O)c1cccn(Cc2nc3cnc4ccc(C#N)cc4c3n2[C@@H]2CCO[C@H](C)C2)c1=O [Compound 19, methyl 1-({8-cyano-1-[(2R,4R)-2-methyloxan-4-yl]-1H-imidazo[4,5-c]quinolin-2-yl}methyl)-2-oxo-1,2-dihydropyridine-3-carboxylate] | 592 | 8.03
5 | C[C@@H]1C[C@H](n2c(Cc3noc(N4CCC(O)CC4)n3)nc3cnc4ccc(C#N)cc4c32)CCO1 [Compound 11, 2-{[5-(4-hydroxypiperidin-1-yl)-1,2,4-oxadiazol-3-yl]methyl}-1-[(2R,4R)-2-methyloxan-4-yl]-1H-imidazo[4,5-c]quinoline-8-carbonitrile] | 270 | 2.26
6 | C[C@@H]1C[C@H](n2c(Cc3noc(N4CCN(C)C(=O)C4)n3)nc3cnc4ccc(C#N)cc4c32)CCO1 [Compound 9, 2-{[5-(4-methyl-3-oxopiperazin-1-yl)-1,2,4-oxadiazol-3-yl]methyl}-1-[(2R,4R)-2-methyloxan-4-yl]-1H-imidazo[4,5-c]quinoline-8-carbonitrile] | 616 | 1.69
